Assay results reported in US12187684B2, “Benzimidazole derivatives as modulators of retinoid-related orphan receptor gamma (RORγ) and pharmaceutical use thereof” (Jiangsu Hengrui Medicine Co., Ltd., priority 2018, dated 2025).

Columns and labels:
[1] = tested on: IL-17 production, human PBMC cells; test: IL-17 production assay using human PBMC; assay type: cell-based; details: Homo sapiens, PBMC, 72 h, human PBMC stimulated by cytostim for 3 days, IL-17 ELISA of supernatant
Outline: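 Cryopreserved human PBMCs, 1×10^5 per well in TexMACS, were treated with compound or vehicle (<0.5% DMSO) and stimulated with Cytostim (10 μL/mL) for 3 days at 37 °C. Supernatant IL-17 was measured by ELISA. IC50 was taken from concentration versus percent inhibition.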

[2] = biological target: T1, RORγ LBD-GST tagged (Homo sapiens, UniProt P51449); test: LanthaScreen TR-FRET RORγ coactivator assay; assay type: biochemical; details: Fluorescein-D22 coactivator peptide, 1 hour room temperature
T1 construct: RORγ LBD-GST tagged (Cat No. RORC-114H, Creative Biomart); purchased Creative Biomart RORC-114H
T1 sequence (P51449 269-508 limits assumed): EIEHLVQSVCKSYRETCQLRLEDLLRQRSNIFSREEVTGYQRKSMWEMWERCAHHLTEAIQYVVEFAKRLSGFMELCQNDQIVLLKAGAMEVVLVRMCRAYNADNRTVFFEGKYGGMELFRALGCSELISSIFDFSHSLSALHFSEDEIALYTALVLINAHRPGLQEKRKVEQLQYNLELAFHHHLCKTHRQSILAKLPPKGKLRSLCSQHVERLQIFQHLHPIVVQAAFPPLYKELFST
Outline: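 GST-tagged RORγ LBD (25 ng/reaction) was incubated in coregulator buffer D with 5 mM DTT and compound (top 3 μM, 7-fold steps, 7 doses), then with a mix containing 0.6 μM fluorescein-D22 peptide and 8 nM Tb anti-GST antibody. After 1 h at room temperature in the dark, 520/495 nm TR-FRET was read. IC50 came from log concentration versus percent inhibition.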

IC50 [2] | SMILES | IC50 [1]
0.014 µM | O=S(=O)(CC1CC1)c1ccc(C(O)c2nc3c(Cl)c(-c4ccccc4OC(F)F)c(Cl)cc3[nH]2)c(F)c1 (stereo not drawn) [Example 100, (4-((cyclopropylmethyl)sulfonyl)-2-fluorophenyl)(4,6-dichloro-5-(2-(difluoromethoxy)phenyl)-1H-benzo[d]imidazol-2-yl)methanol] | 0.0013 µM
0.034 µM | CCS(=O)(=O)c1ccc(C(CO)c2nc3cc(-c4ccccc4OC(F)(F)F)c(Cl)cc3[nH]2)cc1 (stereo not drawn) [Example 119, 2-(6-chloro-5-(2-(trifluoromethoxy)phenyl)-1H-benzo[d]imidazol-2-yl)-2-(4-(ethylsulfonyl)phenyl)ethanol] | 0.124 µM
0.03 µM | O=S(=O)(NC1CC1)c1ccc(C(CO)c2nc3c(Cl)c(-c4ccccc4OC(F)(F)F)c(Cl)cc3[nH]2)cc1 (stereo not drawn) [Example 123, N-cyclopropyl-4-(1-(4,6-dichloro-5-(2-(trifluoromethoxy)phenyl)-1H-benzo[d]imidazol-2-yl)-2-hydroxyethyl)benzenesulfonamide] | 0.058 µM
0.205 µM | CC(C)Oc1ccccc1-c1cc2nc(C(CO)c3ccc(S(=O)(=O)CC4CC4)cc3)[nH]c2cc1Cl (stereo not drawn) [Example 124, 2-(6-chloro-5-(2-isopropoxyphenyl)-1H-benzo[d]imidazol-2-yl)-2-(4-((cyclopropylmethyl)sulfonyl)phenyl)ethanol] | 0.032 µM
0.059 µM | CCS(=O)(=O)c1ccc(Cc2nc3c(Cl)c(N4CCC(F)(F)CC4)c(Cl)cc3[nH]2)cc1 [Example 125, 4,6-dichloro-5-(4,4-difluoropiperidin-1-yl)-2-(4-(ethylsulfonyl)benzyl)-1H-benzo[d]imidazole] | 0.047 µM
0.135 µM | CCS(=O)(=O)c1ccc(C(CO)c2nc3cc(Cl)c(N4CCC(F)(F)CC4)c(Cl)c3[nH]2)cc1 (stereo not drawn) [Example 126, 2-(5,7-dichloro-6-(4,4-difluoropiperidin-1-yl)-1H-benzo[d]imidazol-2-yl)-2-(4-(ethylsulfonyl)phenyl)ethanol] | 0.008 µM
0.22 µM | O=S(=O)(CC1CC1)c1ccc(Cc2nc3cc(Cl)c(N4CCC(F)(F)CC4)c(Cl)c3[nH]2)cc1 [Example 127, 5,7-dichloro-2-(4-((cyclopropylmethyl)sulfonyl)benzyl)-6-(4,4-difluoropiperidin-1-yl)-1H-benzo[d]imidazole] | 0.013 µM
0.006 µM | NCC(c1ccc(S(=O)(=O)CC2CC2)cc1)c1nc2ccc(-c3ccccc3OC(F)F)c(Cl)c2[nH]1 (stereo not drawn) [Example 128, 2-(7-chloro-6-(2-(difluoromethoxy)phenyl)-1H-benzo[d]imidazol-2-yl)-2-(4-((cyclopropylmethyl)sulfonyl)phenyl)ethanamine] | 0.091 µM
0.014 µM | CC(=O)NCC(c1ccc(S(=O)(=O)CC2CC2)cc1)c1nc2cc(Cl)c(-c3ccccc3OC(F)F)cc2[nH]1 (stereo not drawn) [Example 129, N-(2-(5-chloro-6-(2-(difluoromethoxy)phenyl)-1H-benzo[d]imidazol-2-yl)-2-(4-((cyclopropylmethyl)sulfonyl)phenyl)ethyl)acetamide] | 0.242 µM
0.024 µM | CC(C)Oc1ccccc1-c1c(Cl)cc2nc(C(O)c3ccc(S(=O)(=O)CC4CC4)cc3)[nH]c2c1Cl (stereo not drawn) [Example 133, (4-((cyclopropylmethyl)sulfonyl)phenyl)(5,7-dichloro-6-(2-isopropoxyphenyl)-1H-benzo[d]imidazol-2-yl)methanol] | 0.027 µM
0.006 µM | CC(C)Oc1ccccc1-c1c(Cl)cc2nc(C(CO)c3ccc(S(=O)(=O)CC4CC4)cc3)[nH]c2c1Cl (stereo not drawn) [Example 134, 2-(4-((cyclopropylmethyl)sulfonyl)phenyl)-2-(5,7-dichloro-6-(2-isopropoxyphenyl)-1H-benzo[d]imidazol-2-yl)ethanol] | 0.003 µM
0.039 µM | COc1ccccc1-c1c(Cl)cc2nc(C(CO)c3ccc(S(=O)(=O)CC4CC4)cc3)[nH]c2c1Cl (stereo not drawn) [Example 135, 2-(4-((cyclopropylmethyl)sulfonyl)phenyl)-2-(5,7-dichloro-6-(2-methoxyphenyl)-1H-benzo[d]imidazol-2-yl)ethanol] | 0.014 µM
0.005 µM | CCOc1ccccc1-c1c(Cl)cc2nc(Cc3ccc(S(=O)(=O)CC4CC4)cc3)[nH]c2c1Cl [Example 136, 5,7-dichloro-2-(4-((cyclopropylmethyl)sulfonyl)benzyl)-6-(2-ethoxyphenyl)-1H-benzo[d]imidazole] | 0.014 µM
0.013 µM | CCOc1ccccc1-c1c(Cl)cc2nc(C(CO)c3ccc(S(=O)(=O)CC4CC4)cc3)[nH]c2c1Cl (stereo not drawn) [Example 137, 2-(4-((cyclopropylmethyl)sulfonyl)phenyl)-2-(5,7-dichloro-6-(2-ethoxyphenyl)-1H-benzo[d]imidazol-2-yl)ethanol] | 0.004 µM
0.018 µM | CCOc1ccccc1-c1c(Cl)cc2nc(C(O)c3ccc(S(=O)(=O)CC4CC4)cc3)[nH]c2c1Cl (stereo not drawn) [Example 138, (4-((cyclopropylmethyl)sulfonyl)phenyl)(5,7-dichloro-6-(2-ethoxyphenyl)-1H-benzo[d]imidazol-2-yl)methanol] | 0.009 µM
0.01 µM | NC(=O)CC(c1ccc(S(=O)(=O)CC2CC2)cc1)c1nc2cc(Cl)c(-c3ccccc3OC(F)F)cc2[nH]1 (stereo not drawn) [Example 141, 3-(5-chloro-6-(2-(difluoromethoxy)phenyl)-1H-benzo[d]imidazol-2-yl)-3-(4-((cyclopropylmethyl)sulfonyl)phenyl)propanamide] | 0.02 µM
0.013 µM | O=S(=O)(CC1CC1)c1ccc(C(CCO)c2nc3cc(Cl)c(-c4ccccc4OC(F)F)cc3[nH]2)cc1 (stereo not drawn) [Example 142, 3-(5-chloro-6-(2-(difluoromethoxy)phenyl)-1H-benzo[d]imidazol-2-yl)-3-(4-((cyclopropylmethyl)sulfonyl)phenyl)propan-1-ol] | 0.028 µM
0.01 µM | CC(C)Oc1ccccc1-c1cc2nc(C(CC(N)=O)c3ccc(S(=O)(=O)CC4CC4)cc3)[nH]c2cc1Cl (stereo not drawn) [Example 143, 3-(5-chloro-6-(2-isopropoxyphenyl)-1H-benzo[d]imidazol-2-yl)-3-(4-((cyclopropylmethyl)sulfonyl)phenyl)propanamide] | 0.027 µM
0.011 µM | CC(C)Oc1ccccc1-c1cc2nc(C(CCO)c3ccc(S(=O)(=O)CC4CC4)cc3)[nH]c2cc1Cl (stereo not drawn) [Example 144, 3-(5-chloro-6-(2-isopropoxyphenyl)-1H-benzo[d]imidazol-2-yl)-3-(4-((cyclopropylmethyl)sulfonyl)phenyl)propan-1-ol] | 0.023 µM
0.068 µM | CCS(=O)(=O)c1ccc(C(CCO)c2nc3c(Cl)c(N4CCC(F)(F)CC4)c(Cl)cc3[nH]2)cc1 (stereo not drawn) [Example 145, 3-(4,6-dichloro-5-(4,4-difluoropiperidin-1-yl)-1H-benzo[d]imidazol-2-yl)-3-(4-(ethylsulfonyl)phenyl)propan-1-ol] | 0.01 µM
0.049 µM | NC(=O)CC(c1ccc(S(=O)(=O)CC2CC2)cc1)c1nc2cc(Cl)c(N3CCC(F)(F)CC3)c(Cl)c2[nH]1 (stereo not drawn) [Example 154, 3-(4-((cyclopropylmethyl)sulfonyl)phenyl)-3-(5,7-dichloro-6-(4,4-difluoropiperidin-1-yl)-1H-benzo[d]imidazol-2-yl)propanamide] | 0.077 µM
